Test results: patent publication US7138361B2, “Herbicidal heterocycles” (E. I. du Pont de Nemours and Company, priority 2000, dated 2006)

Legend:
Assay type in all cases: in vivo
[1] = system: lambsquarters (Chenopodium album); experiment: Test B preemergence
Summary of the method: (§1)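 Ratings on a 0 to 100 visual scale (100 complete control) compare treated plants with controls 13 to 15 days after application. Treatments were pre- or postemergence sprays of compound in non-phytotoxic solvent with surfactant.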

[2] = system: pigweed (Amaranthus retroflexus); experiment: Test B preemergence
Summary of the method: as §1

[3] = system: crabgrass (Digitaria sanguinalis); experiment: Test B preemergence
Summary of the method: as §1

[4] = system: barnyardgrass (Echinochloa crus-galli); experiment: Test B preemergence
Summary of the method: as §1

[5] = system: Surinam grass (Brachiaria decumbens); experiment: Test B preemergence
Summary of the method: as §1

[6] = system: morning glory (Ipomoea hederacea); experiment: Test B preemergence
Summary of the method: as §1

corn (Zea mays) [7] = experiment: Test B preemergence
Summary of the method: as §1

[8] = system: giant foxtail (Setaria faberii); experiment: Test B preemergence
Summary of the method: as §1

[9] = system: cocklebur (Xanthium strumarium); experiment: Test B preemergence
Summary of the method: as §1

[10] = system: velvetleaf (Abutilon theophrasti); experiment: Test B preemergence
Summary of the method: as §1

rice (Oryza saliva) = experiment: Test B preemergence
Summary of the method: as §1

Sunflower = experiment: Test C preemergence; settings: Rate 500 g/ha, visual evaluation after 12 to 14 days
[11] = system: barnyardgrass (Echinochloa crus-galli); experiment: Test C flooded paddy test; settings: for Plant response rating, Barnyardgrass: scale 0 to 100 (0 no effect, 100 complete control)
Summary of the method: (§2)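 Ratings come from visual comparison with control plants after 12 to 14 days in the greenhouse. Each species was at the 2-leaf stage when the flooded paddy was treated. Scores run from 0, meaning no effect, to 100, meaning complete control.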

[12] = system: duck salad (Heteranthera limosa); experiment: Test C flooded paddy test; settings: for Plant response rating, Ducksalad: scale 0 to 100 (0 no effect, 100 complete control)
Summary of the method: as §2

[13] = system: lambsquarters (Chenopodium album); experiment: Test B postemergence
Summary of the method: as §1

[14] = system: pigweed (Amaranthus retroflexus); experiment: Test B postemergence
Summary of the method: as §1

[15] = system: crabgrass (Digitaria sanguinalis); experiment: Test B postemergence
Summary of the method: as §1

[16] = system: barnyardgrass (Echinochloa crus-galli); experiment: Test B postemergence
Summary of the method: as §1

wild oat (Avena fatua) = experiment: Test B postemergence
Summary of the method: as §1

[17] = system: Surinam grass (Brachiaria decumbens); experiment: Test B postemergence
Summary of the method: as §1

[18] = system: morning glory (Ipomoea hederacea); experiment: Test B postemergence
Summary of the method: as §1

corn (Zea mays) [19] = experiment: Test B postemergence
Summary of the method: as §1

[20] = system: giant foxtail (Setaria faberii); experiment: Test B postemergence
Summary of the method: as §1

[21] = system: cocklebur (Xanthium strumarium); experiment: Test B postemergence
Summary of the method: as §1

[22] = system: velvetleaf (Abutilon theophrasti); experiment: Test B postemergence
Summary of the method: as §1

[23] = system: wheat (Triticum aestivum); experiment: Test B postemergence
Summary of the method: as §1

[24] = system: blackgrass (Alopecurus myosuroides); experiment: Test B postemergence
Summary of the method: as §1

[25] = Preemergence, Rate 500 g/ha, scale 0 to 100, 0 no effect, 100 complete control
[26] = preemergence, Rate 125 g/ha, scale of 0 to 100 where 0 is no effect and 100 is complete control, 13 to 15 days
[27] = Flooded Paddy, Rate 500 g/ha, scale 0 to 100, 0 no effect, 100 complete control
[28] = flooded paddy test, Rate 125 g/ha
[29] = flooded paddy test, Rate 250 g/ha
[30] = flooded paddy test, Rate 62 g/ha, visually evaluated after 12 to 14 days, 0 = no effect, 100 = complete control
[31] = Rate 125 g/ha, scale 0 to 100, 0 no effect, 100 complete control
[32] = Rate 500 g/ha, scale 0 (no effect) to 100 (complete control), 13 to 15 days

CCC(C)c1ccn(C2CCN(c3ccc(Br)c(OC)c3)C2=O)n1 (stereo not drawn) [Compound 142]
Plant response rating, Lambsquarters [1, 25]: 100 | Plant response rating, Lambsquarters [1, 26]: 100 | Plant response rating, Pigweed [2, 25]: 100 | Plant response rating, Pigweed [2, 26]: 100 | Plant response rating, Crabgrass [3, 25]: 100 | Plant response rating, Crabgrass [3, 26]: 100 | Plant response rating, Barnyardgrass [4, 25]: 100 | Plant response rating, Barnyardgrass [4, 26]: 100 | Plant response rating, Surinam grass [5, 25]: 100 | Plant response rating, Surinam grass [5, 26]: 100 | Plant response rating, Morningglory [6, 25]: 50 | Plant response rating, Morningglory [6, 26]: 20 | Plant response rating, Corn (corn (Zea mays) [7]; [25]): 20 | Plant response rating, Corn (corn (Zea mays) [7]; [26]): 0 | Plant response rating, Foxtail, Giant [8, 25]: 100 | Plant response rating, Foxtail, Giant [8, 26]: 100 | Plant response rating, Cocklebur [9, 25]: 60 | Plant response rating, Cocklebur [9, 26]: 0 | Plant response rating, Velvetleaf [10, 25]: 90 | Plant response rating, Velvetleaf [10, 26]: 20 | Plant response rating, Rice (rice (Oryza saliva); [25]): 40 | Plant response rating, Rice (rice (Oryza saliva); [26]): 20 | Plant response rating (0 to 100), Sunflower (Sunflower): 80 | Barnyardgrass plant response rating [11, 27]: 100 | Plant response rating, Barnyardgrass [11, 28]: 100 | Plant response rating, Barnyardgrass [11, 29]: 100 | Plant response rating (scale 0 to 100), Barnyardgrass [11, 30]: 80 | Ducksalad plant response rating [12, 27]: 100 | Plant response rating, Ducksalad [12, 28]: 90 | Plant response rating, Ducksalad [12, 29]: 100 | Plant response rating (scale 0 to 100), Ducksalad [12, 30]: 30 | Plant response rating, Lambsquarters [13, 31]: 70 | Plant response rating, Lambsquarters [13, 32]: 100 | Plant response rating, Pigweed [14, 31]: 60 | Plant response rating, Pigweed [14, 32]: 80 | Plant response rating, Crabgrass [15, 31]: 40 | Plant response rating, Crabgrass [15, 32]: 60 | Plant response rating, Barnyardgrass [16, 31]: 0 | Plant response rating, Barnyardgrass [16, 32]: 60 | Plant response rating, Wild Oat (wild oat (Avena fatua); [31]): 0 | Plant response rating, Wild Oat (wild oat (Avena fatua); [32]): 0 | Plant response rating, Surinam grass [17, 31]: 0 | Plant response rating, Surinam grass [17, 32]: 0 | Plant response rating, Morningglory [18, 31]: 70 | Plant response rating, Morningglory [18, 32]: 100 | Plant response rating, Corn (corn (Zea mays) [19]; [31]): 0 | Plant response rating, Corn (corn (Zea mays) [19]; [32]): 30 | Plant response rating, Foxtail, Giant [20, 31]: 30 | Plant response rating, Foxtail, Giant [20, 32]: 90 | Plant response rating, Cocklebur [21, 31]: 60 | Plant response rating, Cocklebur [21, 32]: 90 | Plant response rating, Velvetleaf [22, 31]: 40 | Plant response rating, Velvetleaf [22, 32]: 70 | Plant response rating, Wheat [23, 31]: 0 | Plant response rating, Wheat [23, 32]: 0 | Plant response rating, Blackgrass [24, 31]: 0 | Plant response rating, Blackgrass [24, 32]: 0
